This note sets out measurements from ChEMBL document CHEMBL4627327, “Antibacterial activity of singly and doubly modified salinomycin derivatives” (Bioorg Med Chem Lett, 2020).

Series [1] relates to Pseudomonas aeruginosa. In words: Antibacterial activity against Pseudomonas aeruginosa ATCC 27853 assessed as bacterial growth inhibition measured after 18 hrs by CLSI protocol based two-fold serial microdilution method. The class given is functional, organism-based.
In series [2] the test system is Pseudomonas aeruginosa. In words: Antibacterial activity against Pseudomonas aeruginosa ATCC 15442 assessed as bacterial growth inhibition measured after 18 hrs by CLSI protocol based two-fold serial microdilution method. The class given is functional, organism-based.
Series [3] has as its system Escherichia coli. Kind of series: Antibacterial activity against Escherichia coli ATCC 25922 assessed as bacterial growth inhibition measured after 18 hrs by CLSI protocol based two-fold serial microdilution method. The class given is functional, organism-based. In general terms: In broth dilution the organism is exposed to a series of concentrations in liquid medium.

In series [4] the test system is Escherichia coli. Kind of series: Antibacterial activity against Escherichia coli NCTC 8196 assessed as bacterial growth inhibition measured after 18 hrs by CLSI protocol based two-fold serial microdilution method. The class given is functional, organism-based.
The test system of series [5] is Staphylococcus epidermidis. Kind of series: Inhibition of biofilm formation in Staphylococcus epidermidis ATCC 35984 at 1 to 8 ug/ml measured after 24 hrs by crystal violet staining based assay. The format is functional, organism-based.
For series [6], the system named is Staphylococcus epidermidis. In words: Inhibition of biofilm formation in Staphylococcus epidermidis ATCC 12228 at 1 to 8 ug/ml measured after 24 hrs by crystal violet staining based assay. The class given is functional, organism-based.
Series [7] concerns Staphylococcus aureus. In words: Antibacterial activity against methicillin-resistant Staphylococcus aureus isolate 612 assessed as bacterial growth inhibition measured after 18 hrs by CLSI protocol based two-fold serial microdilution method. Particulars: isolate 612, 18 h. The format is functional.
Series [8] has as its system Staphylococcus aureus. In words: Antibacterial activity against methicillin-resistant Staphylococcus aureus isolate 583 assessed as bacterial growth inhibition measured after 18 hrs by CLSI protocol based two-fold serial microdilution method. Particulars: isolate 583, 18 h. The format is functional.
Series [9] relates to Staphylococcus epidermidis. Kind of series: Antibacterial activity against methicillin-resistant Staphylococcus epidermidis isolate 602 assessed as bacterial growth inhibition measured after 18 hrs by CLSI protocol based two-fold serial microdilution method. The format is functional. Particulars: isolate 602, 18 h.
Series [10] relates to Staphylococcus epidermidis. Kind of series: Antibacterial activity against methicillin-resistant Staphylococcus epidermidis isolate 610 assessed as bacterial growth inhibition measured after 18 hrs by CLSI protocol based two-fold serial microdilution method. The class given is functional. Particulars: isolate 610, 18 h.
Series [11] concerns Staphylococcus aureus. In words: Antibacterial activity against methicillin-resistant Staphylococcus aureus isolate 620 assessed as bacterial growth inhibition measured after 18 hrs by CLSI protocol based two-fold serial microdilution method. The class given is functional. Particulars: isolate 620, 18 h.
Series [12] has as its system Staphylococcus epidermidis. In words: Antibacterial activity against methicillin-resistant Staphylococcus epidermidis isolate 609 assessed as bacterial growth inhibition measured after 18 hrs by CLSI protocol based two-fold serial microdilution method. The format is functional. Particulars: isolate 609, 18 h.
Series [13] concerns Staphylococcus epidermidis. Kind of series: Antibacterial activity against methicillin-resistant Staphylococcus epidermidis isolate 660 assessed as bacterial growth inhibition measured after 18 hrs by CLSI protocol based two-fold serial microdilution method. The format is functional. Particulars: isolate 660, 18 h.
Series [14] can be described thus: Genotoxicity in rec-positive Bacillus subtilis H17 assessed as diameter of inhibition zone at 256 ug measured after 24 hrs by rec-assay. The format is toxicity. Particulars: in vivo.
In series [15] the test system is Staphylococcus aureus. In words: Antibacterial activity against methicillin-resistant Staphylococcus aureus isolate 750 assessed as bacterial growth inhibition measured after 18 hrs by CLSI protocol based two-fold serial microdilution method. The class given is functional. Particulars: isolate 750, 18 h.
The nature of series [16]: Genotoxicity in rec negative Bacillus subtilis M45 assessed as diameter of inhibition zone at 256 ug measured after 24 hrs by rec-assay. The class given is toxicity. Particulars: in vivo.
Series [17] relates to Staphylococcus epidermidis. Kind of series: Antibacterial activity against methicillin-resistant Staphylococcus epidermidis isolate 603 assessed as bacterial growth inhibition measured after 18 hrs by CLSI protocol based two-fold serial microdilution method. The format is functional. Particulars: isolate 603, 18 h.
Series [18] concerns Staphylococcus aureus. Kind of series: Antibacterial activity against methicillin-resistant Staphylococcus aureus isolate 621 assessed as bacterial growth inhibition measured after 18 hrs by CLSI protocol based two-fold serial microdilution method. Particulars: isolate 621, 18 h. The format is functional.
The test system of series [19] is Staphylococcus aureus. Kind of series: Antibacterial activity against methicillin-resistant Staphylococcus aureus isolate 770 assessed as bacterial growth inhibition measured after 18 hrs by CLSI protocol based two-fold serial microdilution method. The class given is functional. Particulars: isolate 770, 18 h.
Series [20] has as its system Staphylococcus epidermidis. In words: Antibacterial activity against methicillin-resistant Staphylococcus epidermidis isolate 574 assessed as bacterial growth inhibition measured after 18 hrs by CLSI protocol based two-fold serial microdilution method. The class given is functional. Particulars: isolate 574, 18 h.
Series [21] deals with Staphylococcus aureus. In words: Antibacterial activity against methicillin-resistant Staphylococcus aureus isolate 584 assessed as bacterial growth inhibition measured after 18 hrs by CLSI protocol based two-fold serial microdilution method. Particulars: isolate 584, 18 h. The format is functional.
Series [22] has as its system Staphylococcus epidermidis. Kind of series: Antibacterial activity against methicillin-resistant Staphylococcus epidermidis isolate 654 assessed as bacterial growth inhibition measured after 18 hrs by CLSI protocol based two-fold serial microdilution method. The format is functional. Particulars: isolate 654, 18 h.

≈ marks a conversion by molar mass, not a printed value. Calls of active or inactive are those of the source. No cut-off for these calls is given here.

Regarding `C#CCNC(=O)[C@H](CC)[C@H]1CC[C@H](C)[C@H]([C@@H](C)[C@H](O)[C@H](C)C(=O)[C@H](CC)[C@H]2O[C@]3(C=C[C@@H](O)[C@]4(CC[C@@](C)([C@H]5CC[C@](O)(CC)[C@H](C)O5)O4)O3)[C@H](C)C[C@@H]2C)O1`, the result with Pseudomonas aeruginosa [1], with Pseudomonas aeruginosa [2], in the series with Escherichia coli [3] and in the series on Escherichia coli [4] was inactive.
For the compound `O=C(O)c1cn(C2CC2)c2cc(N3CCNCC3)c(F)cc2c1=O`, the inhibition entry in [5] and in series [6] was “Active” in each case.
In general, MIC refers to the lowest concentration found to suppress growth. In the case of `CC[C@@H](C(=O)[C@@H](C)[C@@H](O)[C@H](C)[C@@H]1O[C@@H]([C@@H](CC)C(=O)O)CC[C@@H]1C)[C@H]1O[C@]2(C=CC(=O)[C@]3(CC[C@@](C)([C@H]4CC[C@](O)(CC)[C@H](C)O4)O3)O2)[C@H](C)C[C@@H]1C`, the MIC (in the series on Staphylococcus aureus [7]; in the series with Staphylococcus aureus [8]; in series [9]; in [10]; in the series with Staphylococcus aureus [11]; in series [12]) was 2.67 µM (≈ 2 µg/mL) throughout. For the same compound, the MIC in series [13] was 5.34 µM (≈ 4 µg/mL); with Staphylococcus aureus [15], 2.67 µM (≈ 2 µg/mL); in series [17] it was 2.67 µM (≈ 2 µg/mL); in the series on Staphylococcus aureus [18], 2.67 µM (≈ 2 µg/mL); with Staphylococcus aureus [19] it was 2.67 µM (≈ 2 µg/mL); in series [20] it was 1.34 µM (≈ 1 µg/mL). Besides, the values for the MIC (with Staphylococcus aureus [21]; in series [22]) were 2.67 µM (≈ 2 µg/mL) and 5.34 µM (≈ 4 µg/mL), respectively. Besides, the outcome with Pseudomonas aeruginosa [1], in the series on Pseudomonas aeruginosa [2], with Escherichia coli [3] and with Escherichia coli [4] was inactive. Moreover, the “diameter of the inhibition zone (DIZ)” value was 32 mm in series [14] and 34 mm in series [16]. Further, the inhibition entry in series [5] and in [6] was “Active” each time.
Turning to `C#CCOC(=O)[C@H](CC)[C@H]1CC[C@H](C)[C@H]([C@@H](C)[C@H](O)[C@H](C)C(=O)[C@H](CC)[C@H]2O[C@]3(C=CC(=O)[C@]4(CC[C@@](C)([C@H]5CC[C@](O)(CC)[C@H](C)O5)O4)O3)[C@H](C)C[C@@H]2C)O1`, the result in the series on Pseudomonas aeruginosa [1], in the series on Pseudomonas aeruginosa [2], in the series with Escherichia coli [3] and in the series with Escherichia coli [4] was inactive.
For `CC[C@@H](C(=O)[C@@H](C)[C@@H](O)[C@H](C)[C@@H]1O[C@@H]([C@@H](CC)C(=O)NCCc2ccc(F)cc2)CC[C@@H]1C)[C@H]1O[C@]2(C=CC(=O)[C@]3(CC[C@@](C)([C@H]4CC[C@](O)(CC)[C@H](C)O4)O3)O2)[C@H](C)C[C@@H]1C`, the outcome in the series with Pseudomonas aeruginosa [1], in the series with Pseudomonas aeruginosa [2], with Escherichia coli [3] and in the series with Escherichia coli [4] was inactive.
For `CC[C@@H](C(=O)[C@@H](C)[C@@H](O)[C@H](C)[C@@H]1O[C@@H]([C@@H](CC)C(=O)O)CC[C@@H]1C)[C@H]1O[C@]2(C=C[C@@H](O)[C@]3(CC[C@@](C)([C@H]4CC[C@](O)(CC)[C@H](C)O4)O3)O2)[C@H](C)C[C@@H]1C` [SALINOMYCIN], the MIC in the series with Staphylococcus aureus [7] was 1.33 µM (≈ 0.999 µg/mL); in the series on Staphylococcus aureus [8], 2.66 µM (≈ 2 µg/mL); in [9] it was 1.33 µM (≈ 0.999 µg/mL); in series [10], 1.33 µM (≈ 0.999 µg/mL); in the series on Staphylococcus aureus [11], 1.33 µM (≈ 0.999 µg/mL); in series [12], 1.33 µM (≈ 0.999 µg/mL). The MIC in [13] is 5.33 µM (≈ 4 µg/mL); in the series on Staphylococcus aureus [15], 1.33 µM (≈ 0.999 µg/mL); in [17], 2.66 µM (≈ 2 µg/mL); in the series on Staphylococcus aureus [18], 2.66 µM (≈ 2 µg/mL); in the series on Staphylococcus aureus [19], 2.66 µM (≈ 2 µg/mL); in series [20], 1.33 µM (≈ 0.999 µg/mL). Also, the MIC in the series on Staphylococcus aureus [21] is 2.66 µM (≈ 2 µg/mL); in [22], 5.33 µM (≈ 4 µg/mL). Besides, the outcome in the series on Pseudomonas aeruginosa [1], in the series with Pseudomonas aeruginosa [2], in the series on Escherichia coli [3] and in the series with Escherichia coli [4] was inactive. In addition, the results for the “diameter of the inhibition zone (DIZ)” value in series [14] and in [16] were 32 mm and 34 mm, respectively.
Regarding `C#CCOC(=O)[C@H](CC)[C@H]1CC[C@H](C)[C@H]([C@@H](C)[C@H](O)[C@H](C)C(=O)[C@H](CC)[C@H]2O[C@]3(C=C[C@@H](O)[C@]4(CC[C@@](C)([C@H]5CC[C@](O)(CC)[C@H](C)O5)O4)O3)[C@H](C)C[C@@H]2C)O1`, the outcome in the series on Pseudomonas aeruginosa [1], in the series on Pseudomonas aeruginosa [2], in the series on Escherichia coli [3] and in the series with Escherichia coli [4] was inactive.
As to `C#CCNC(=O)[C@H](CC)[C@H]1CC[C@H](C)[C@H]([C@@H](C)[C@H](O)[C@H](C)C(=O)[C@H](CC)[C@H]2O[C@]3(C=CC(=O)[C@]4(CC[C@@](C)([C@H]5CC[C@](O)(CC)[C@H](C)O5)O4)O3)[C@H](C)C[C@@H]2C)O1`, the result with Pseudomonas aeruginosa [1], in the series on Pseudomonas aeruginosa [2], in the series on Escherichia coli [3] and in the series with Escherichia coli [4] was inactive.
`CC[C@@H](C(=O)[C@@H](C)[C@@H](O)[C@H](C)[C@@H]1O[C@@H]([C@@H](CC)C(=O)NCC(F)(F)F)CC[C@@H]1C)[C@H]1O[C@]2(C=CC(=O)[C@]3(CC[C@@](C)([C@H]4CC[C@](O)(CC)[C@H](C)O4)O3)O2)[C@H](C)C[C@@H]1C`: the result in the series with Pseudomonas aeruginosa [1], with Pseudomonas aeruginosa [2], with Escherichia coli [3] and in the series with Escherichia coli [4] was inactive.
In the case of `CC[C@@H](C(=O)[C@@H](C)[C@@H](O)[C@H](C)[C@@H]1O[C@@H]([C@@H](CC)C(=O)NCC(F)(F)F)CC[C@@H]1C)[C@H]1O[C@]2(C=C[C@@H](O)[C@]3(CC[C@@](C)([C@H]4CC[C@](O)(CC)[C@H](C)O4)O3)O2)[C@H](C)C[C@@H]1C`, the result in the series on Pseudomonas aeruginosa [1], in the series on Pseudomonas aeruginosa [2], in the series with Escherichia coli [3] and in the series with Escherichia coli [4] was inactive.
Regarding `CC[C@@H](C(=O)[C@@H](C)[C@@H](O)[C@H](C)[C@@H]1O[C@@H]([C@@H](CC)C(=O)OCC(F)(F)F)CC[C@@H]1C)[C@H]1O[C@]2(C=C[C@@H](O)[C@]3(CC[C@@](C)([C@H]4CC[C@](O)(CC)[C@H](C)O4)O3)O2)[C@H](C)C[C@@H]1C`, the result in the series on Pseudomonas aeruginosa [1], in the series on Pseudomonas aeruginosa [2], with Escherichia coli [3] and in the series on Escherichia coli [4] was inactive.
Regarding `CC[C@@H](C(=O)[C@@H](C)[C@@H](O)[C@H](C)[C@@H]1O[C@@H]([C@@H](CC)C(=O)OCC(F)(F)F)CC[C@@H]1C)[C@H]1O[C@]2(C=CC(=O)[C@]3(CC[C@@](C)([C@H]4CC[C@](O)(CC)[C@H](C)O4)O3)O2)[C@H](C)C[C@@H]1C`, the result with Pseudomonas aeruginosa [1], in the series with Pseudomonas aeruginosa [2], with Escherichia coli [3] and with Escherichia coli [4] was inactive.
Consider `O=[N+]([O-])c1cc[n+]([O-])c2ccccc12` [4-NITROQUINOLINE-1-OXIDE], for which the “diameter of the inhibition zone (DIZ)” value in series [14] was 22 mm; in series [16] it was 34 mm.
